Experimental data taken from patent publication US5191079A, “Quinolinecarboxylic acid derivatives” (priority 1990, dated 1993).
≈ marks a conversion by molar mass, not a printed value.

How the values were obtained:
Test in all cases: MIC, Experiment 1
Assay type in all cases: cell-based
[1] = tested on: Acinetobacter calcoaceticus Ac 54; settings: AC54, A. calcoaceticus Ac 54, Gram -, read-out: Min. inhib. concentr. (MIC)
Procedure, shortened: (§1)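 Stock solutions (5000 μg/ml, in DMSO or water) were diluted to 1000 μg/ml working standards. MICs were measured per the Japan Society of Chemotherapy procedure, with media matched to each organism: blood-supplemented heart infusion agar for S. pneumoniae and sensitivity test agar for the remaining strains.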

Bacillus cereus IAM 1029 = settings: IAM1029, B. cereus IAM 1029, Gram +, read-out: Min. inhib. concentr. (MIC)
Procedure, shortened: (§2)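 Agar MIC testing follows the Japan Society of Chemotherapy method. Compounds came from 1000 μg/ml aqueous standard solutions made from 5000 μg/ml stocks in DMSO or water. Blood-enriched heart infusion agar served for S. pneumoniae, and sensitivity test agar served for the other bacteria.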

[2] = tested on: Bacillus subtilis ATCC 6633; settings: ATCC6633, B. subtilis ATCC 6633, Gram +, read-out: Min. inhib. concentr. (MIC)
Procedure, shortened: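 Following the Japan Society of Chemotherapy standard, compounds were diluted in water to 1000 μg/ml standard solutions and tested on agar plates. Sensitivity test broth and agar served the staphylococcal and Bacillus strains. Pneumococci were grown in brain heart infusion broth before testing on heart infusion agar with 5% horse blood.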

Enterobacter cloacae 963 = settings: E. cloacae 963, Gram -, read-out: Min. inhib. concentr. (MIC)
Procedure, shortened: as §1

[3] = tested on: Escherichia coli NIHJ JC-2; settings: NIHJJC2, E. coli NIHJ JC-2, Gram -, read-out: Min. inhib. concentr. (MIC)
Procedure, shortened: as §1

[4] = tested on: Klebsiella pneumoniae PCI-602; settings: PCI602, K. pneumoniae PCI-602, Gram -, read-out: Min. inhib. concentr. (MIC)
Procedure, shortened: as §1

[5] = tested on: Micrococcus luteus ATCC 9341; settings: ATCC9341, M. luteus ATCC 9341, Gram +, read-out: Min. inhib. concentr. (MIC)
Procedure, shortened: as §1

[6] = tested on: Proteus mirabilis IFO 3849; settings: IFO3849, P. mirabilis IFO 3849, Gram -, read-out: Min. inhib. concentr. (MIC)
Procedure, shortened: as §1

[7] = tested on: Pseudomonas aeruginosa NCTC 10490; settings: NCTC10490, P. aeruginosa NCTC 10490, Gram -, read-out: Min. inhib. concentr. (MIC)
Procedure, shortened: as §1

[8] = tested on: Staphylococcus aureus ATCC 9144; settings: ATCC9144, S. aureus ATCC 9144, Gram +, read-out: Min. inhib. concentr. (MIC)
Procedure, shortened: as §2

[9] = tested on: Staphylococcus aureus Cowan I (IID 975); settings: IID975, S. aureus Cowan I (IID 975), Gram +, read-out: Min. inhib. concentr. (MIC)
Procedure, shortened: as §2

[10] = tested on: Staphylococcus aureus FDA 209P JC-1; settings: FDA209P, S. aureus FDA 209P JC-1, Gram +, read-out: Min. inhib. concentr. (MIC)
Procedure, shortened: as §2

[11] = tested on: Staphylococcus aureus FDA 243; settings: FDA243, S. aureus FDA 243, Gram +, read-out: Min. inhib. concentr. (MIC)
Procedure, shortened: as §2

[12] = tested on: Staphylococcus aureus IID 803; settings: IID803, S. aureus IID 803, Gram +, read-out: Min. inhib. concentr. (MIC)
Procedure, shortened: as §2

[13] = tested on: Staphylococcus aureus MS-353; settings: MS353, S. aureus MS-353, Gram +, read-out: Min. inhib. concentr. (MIC)
Procedure, shortened: as §2

[14] = tested on: Staphylococcus aureus Terajima (IID 670); settings: IID670, S. aureus Terajima (IID 670), Gram +, read-out: Min. inhib. concentr. (MIC)
Procedure, shortened: as §2

[15] = tested on: Streptococcus pneumoniae IID 552; settings: IID552, S. pneumoniae IID 552, Gram +, agar with 5% defibrinated horse blood, read-out: Min. inhib. concentr. (MIC)
Procedure, shortened: as §2

[16] = tested on: Streptococcus pneumoniae IID 554; settings: IID554, S. pneumoniae IID 554, Gram +, agar with 5% defibrinated horse blood, read-out: Min. inhib. concentr. (MIC)
Procedure, shortened: as §2

[17] = tested on: Streptococcus pyogenes Cook; settings: S. pyogenes Cook, Gram +, agar with 5% defibrinated horse blood, read-out: Min. inhib. concentr. (MIC)
Procedure, shortened: (§3)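 Stocks: 5000 μg/ml in DMSO or sterile distilled water; standard: 1000 μg/ml after water dilution. Method: Japan Society of Chemotherapy.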

[18] = tested on: Streptococcus pyogenes Su; settings: S. pyogenes Su, Gram +, agar with 5% defibrinated horse blood, read-out: Min. inhib. concentr. (MIC)
Procedure, shortened: as §3

[19] = tested on: Streptococcus pyogenes Sv; settings: S. pyogenes Sv, Gram +, agar with 5% defibrinated horse blood, read-out: Min. inhib. concentr. (MIC)
Procedure, shortened: as §3

| SMILES | MIC [1] [µg/mL] | MIC (Bacillus cereus IAM 1029) [µg/mL] | MIC [2] [µg/mL] | MIC (Enterobacter cloacae 963) [µg/mL] | MIC [3] [µg/mL] | MIC [4] [µg/mL] | MIC [5] [µg/mL] | MIC [6] [µg/mL] | MIC [7] [µg/mL] | MIC [8] [µg/mL] | MIC [9] [µg/mL] | MIC [10] [µg/mL] | MIC [11] [µg/mL] | MIC [12] [µg/mL] | MIC [13] [µg/mL] | MIC [14] [µg/mL] | MIC [15] [µg/mL] | MIC [16] [µg/mL] | MIC [17] [µg/mL] | MIC [18] [µg/mL] | further results |
| --- | --- | --- | --- | --- | --- | --- | --- | --- | --- | --- | --- | --- | --- | --- | --- | --- | --- | --- | --- | --- | --- |
| CN1Cc2csc3c(C(=O)O)c(=O)c4cc(F)c(N5CCC(N(C)C)CC5)c1c4n23 [Compound (H), 9,1-(methylimino)methano-7-fluoro-8-(4-dimethylaminopiperidino)-5-oxo-5H-thiazolo[3,2-a]quinoline-4-carboxylic acid] | 0.1 (≈ 0.232 µM) | 0.05 (≈ 0.116 µM) | 0.05 (≈ 0.116 µM) | 0.39 (≈ 0.906 µM) | 0.2 (≈ 0.465 µM) | 0.025 (≈ 0.0581 µM) | 0.39 (≈ 0.906 µM) | 0.78 (≈ 1.81 µM) | 0.78 (≈ 1.81 µM) | 0.05 (≈ 0.116 µM) | 0.05 (≈ 0.116 µM) | 0.1 (≈ 0.232 µM) | 0.05 (≈ 0.116 µM) | 0.1 (≈ 0.232 µM) | 0.1 (≈ 0.232 µM) | 0.05 (≈ 0.116 µM) | 0.05 (≈ 0.116 µM) | 0.05 (≈ 0.116 µM) | 0.05 (≈ 0.116 µM) | 0.05 (≈ 0.116 µM) | MIC [19]: 0.05 µg/mL (≈ 0.116 µM) |
| CCOCC1CN(c2c(F)cc3c(=O)c(C(=O)O)c4scc5n4c3c2N(C)C5)CCO1 (stereo not drawn) [Compound (Q), 9,1-(Methylimino)methano-7-fluoro-8-(2-ethoxymethylmorpholino)-5-oxo-5H-thiazolo[3,2-a]quinoline-4-carboxylic acid] | 0.05 (≈ 0.112 µM) | 0.1 (≈ 0.223 µM) | 0.05 (≈ 0.112 µM) | 1.56 (≈ 3.49 µM) | 0.78 (≈ 1.74 µM) | 0.2 (≈ 0.447 µM) | 0.39 (≈ 0.872 µM) | 1.56 (≈ 3.49 µM) | 1.56 (≈ 3.49 µM) | 0.025 (≈ 0.0559 µM) | 0.05 (≈ 0.112 µM) | 0.1 (≈ 0.223 µM) | 0.05 (≈ 0.112 µM) | 0.05 (≈ 0.112 µM) | 0.1 (≈ 0.223 µM) | 0.1 (≈ 0.223 µM) | 0.39 (≈ 0.872 µM) | 0.39 (≈ 0.872 µM) | 0.2 (≈ 0.447 µM) | 0.2 (≈ 0.447 µM) | MIC [19]: 0.39 µg/mL (≈ 0.872 µM) |
| COC[C@@H]1CN(c2c(F)cc3c(=O)c(C(=O)O)c4scc5n4c3c2N(C)C5)CCO1 [Compound (O), 9,1-(Methylimino)methano-7-fluoro-8-[(2S)-2-methoxymethylmorpholino)-5-oxo-5H-thiazolo[3,2-a]quinoline-4-carboxylic acid] | 0.013 (≈ 0.03 µM) | 0.025 (≈ 0.0577 µM) | 0.013 (≈ 0.03 µM) | 0.78 (≈ 1.8 µM) | 0.2 (≈ 0.461 µM) | 0.013 (≈ 0.03 µM) | 0.1 (≈ 0.231 µM) | 0.78 (≈ 1.8 µM) | 0.78 (≈ 1.8 µM) | 0.025 (≈ 0.0577 µM) | ≤ 0.006 | 0.025 (≈ 0.0577 µM) | ≤ 0.006 | 0.013 (≈ 0.03 µM) | 0.013 (≈ 0.03 µM) | 0.025 (≈ 0.0577 µM) | 0.05 (≈ 0.115 µM) | 0.05 (≈ 0.115 µM) | 0.05 (≈ 0.115 µM) | 0.05 (≈ 0.115 µM) | MIC [19]: 0.05 µg/mL (≈ 0.115 µM) |
| CN1Cc2csc3c(C(=O)O)c(=O)c4cc(F)c(N5CCC(=O)CC5)c1c4n23 [Compound (G), 9,1-(Methylimino)methano-7-fluoro-8-(4-oxopiperidino)-5-oxo-5H-thiazolo[3,2-a]quinoline-4-carboxylic acid] | ≤ 0.006 | 0.013 (≈ 0.0324 µM) | ≤ 0.006 | 0.2 (≈ 0.498 µM) | 0.1 (≈ 0.249 µM) | ≤ 0.006 | 0.05 (≈ 0.125 µM) | 0.2 (≈ 0.498 µM) | 0.39 (≈ 0.972 µM) | ≤ 0.006 | ≤ 0.006 | 0.013 (≈ 0.0324 µM) | ≤ 0.006 | ≤ 0.006 | ≤ 0.006 | 0.013 (≈ 0.0324 µM) | 0.025 (≈ 0.0623 µM) | 0.025 (≈ 0.0623 µM) | 0.025 (≈ 0.0623 µM) | 0.013 (≈ 0.0324 µM) | MIC [19]: 0.025 µg/mL (≈ 0.0623 µM) |
| CN1Cc2csc3c(C(=O)O)c(=O)c4cc(F)c(N5CCOC(CF)C5)c1c4n23 (stereo not drawn) [Compound (C), 9,1-(Methylimino)methano-7-fluoro-8-(2-fluoromethylmorpholino)-5-oxo-5H-thiazolo[3,2-a]quinoline-4-carboxylic acid] | ≤ 0.006 | 0.013 (≈ 0.0308 µM) | ≤ 0.006 | 0.2 (≈ 0.475 µM) | 0.2 (≈ 0.475 µM) | ≤ 0.006 | 0.1 (≈ 0.237 µM) | 0.2 (≈ 0.475 µM) | 0.39 (≈ 0.925 µM) | 0.013 (≈ 0.0308 µM) | 0.013 (≈ 0.0308 µM) | 0.013 (≈ 0.0308 µM) | ≤ 0.006 | ≤ 0.006 | 0.013 (≈ 0.0308 µM) | 0.013 (≈ 0.0308 µM) | 0.025 (≈ 0.0593 µM) | 0.05 (≈ 0.119 µM) | 0.05 (≈ 0.119 µM) | 0.025 (≈ 0.0593 µM) | MIC [19]: 0.05 µg/mL (≈ 0.119 µM) |
| COC[C@H]1CN(c2c(F)cc3c(=O)c(C(=O)O)c4scc5n4c3c2N(C)C5)CCO1 [Compound (P), 9,1-(Methylimino)methano-7-fluoro-8-[(2R)-2-methoxymethylmorpholino)-5-oxo-5H-thiazolo[3,2-a]quinoline-4-carboxylic acid] | 0.013 (≈ 0.03 µM) | 0.025 (≈ 0.0577 µM) | ≤ 0.006 | 1.56 (≈ 3.6 µM) | 0.2 (≈ 0.461 µM) | 0.025 (≈ 0.0577 µM) | 0.2 (≈ 0.461 µM) | 0.78 (≈ 1.8 µM) | 1.56 (≈ 3.6 µM) | 0.013 (≈ 0.03 µM) | 0.006 (≈ 0.0138 µM) | 0.05 (≈ 0.115 µM) | ≤ 0.006 | 0.025 (≈ 0.0577 µM) | 0.025 (≈ 0.0577 µM) | 0.05 (≈ 0.115 µM) | 0.05 (≈ 0.115 µM) | 0.1 (≈ 0.231 µM) | 0.05 (≈ 0.115 µM) | 0.05 (≈ 0.115 µM) | MIC [19]: 0.1 µg/mL (≈ 0.231 µM) |
